This note sets out measurements from patent US20160039880A1 (priority 2012, published 2016).

The target of series [1] is Calcineurin (Homo sapiens, UniProt P62937+P63098+Q08209).
Series [2] addresses Human recombinant cyclophilin A (Cyp A) (Homo sapiens, UniProt P62937).
Series [3] in a line: Water Solubility Assay (measured in pH 7.8 buffer).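 Note: precipitation onset detected as rise in absorbance at 650 nm across increasing concentrations, after shaking for 18 h, blank wells receiving DMSO only.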 It counts as physicochemical. The following applies: pH 7.8.
Description: The aqueous solubility of a compound of Formula I in buffer (pH 7.8) was measured by recording the onset of precipitation of the compound as a function of increasing concentration. The onset of precipitation, if it occurred, was detected by an increase in absorbance at 650 nm.
Assay Buffer: 35 mM HEPES pH 7.8
Stock solutions of Control and Test Compounds: 10 mM in 100% DMSO
10 mM stock solutions of control and test compounds were prepared in 100% DMSO.
Assay buffer (247.5 μl) was placed into flat bottomed transparent 96-well plate. For blank samples DMSO (2.5 μl) was added. For test and control samples 2.5 μl of the appropriate DMSO dilution stocks were added to the appropriate well. All test and control compounds were performed in triplicate.
The plates were sealed with adhesive plate seal and shaken at 250 rpm at 25° C. for 18 h on a plate shaker.
After incubation the plate seals were taken off and any bubbles observed in wells removed. The plates were read on a SpectraMaxM5 with a 5 s pre-shake at 650 nm.
Data files were transferred to the appropriate worksheet and the solubility range of the compounds was calculated from the data.
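Throughout, for Ki: cis to trans isomerization of SUC-AAPF-pNA by 2 nM enzyme, read as absorbance at 330 nm over 300 s at 10 °C, catalytic rate corrected for uncatalyzed background.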

Chain of Calcineurin (P63098 whole entry, other chains not shown): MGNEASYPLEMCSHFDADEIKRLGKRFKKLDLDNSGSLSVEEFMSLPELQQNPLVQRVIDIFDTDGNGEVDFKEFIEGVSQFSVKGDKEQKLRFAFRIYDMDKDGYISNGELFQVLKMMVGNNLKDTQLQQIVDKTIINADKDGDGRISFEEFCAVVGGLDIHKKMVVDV
Chain of Calcineurin (P62937 whole entry, other chains not shown): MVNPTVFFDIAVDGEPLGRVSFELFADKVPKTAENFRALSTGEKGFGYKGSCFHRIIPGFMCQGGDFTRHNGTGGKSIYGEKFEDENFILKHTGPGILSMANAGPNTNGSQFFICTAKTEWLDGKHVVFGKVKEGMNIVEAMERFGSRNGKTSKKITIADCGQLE
Chain of Human recombinant cyclophilin A (Cyp A) (P62937 whole entry): as the sequence (P62937 whole entry, other chains not shown) above

As for `CC[C@H]1NC(=O)[C@@H]([C@H](O)[C@H](C)CCN2CCC(F)(F)C2)N(C)C(=O)[C@@H](C(C)C)N(C)C(=O)[C@@H](CC(C)C)N(C)C(=O)[C@@H](CC(C)C)N(C)C(=O)[C@H](C)NC(=O)[C@@H](C)NC(=O)[C@@H](CC(C)C)N(C)C(=O)[C@@H](C(C)C)NC(=O)[C@H](CC(C)C)N(C)C(=O)[C@@H](C)N(C)C1=O` [Compound EL, [(3R,4R,5S)-(3,3-Difluoro-pyrrolidin-1-yl)-4-Hydroxy-3-methyl-5-(methylamino)-1-hexanoic acid]^1[(R)-methyl-Sar]^3 cyclosporin A], the immunosuppressive potential entry in series [1] is reported as “more immunosuppressive potential than others”. In addition, the Ki in series [2] was 10 nM. In addition, the “Water Solubility Assay” value in series [3] lay within 75 to 100 µM.

For the compound `CC[C@H]1NC(=O)[C@@H]([C@H](O)[C@H](C)CCN2CC(F)(F)C2)N(C)C(=O)[C@@H](C(C)C)N(C)C(=O)[C@@H](CC(C)C)N(C)C(=O)[C@@H](CC(C)C)N(C)C(=O)[C@H](C)NC(=O)[C@@H](C)NC(=O)[C@@H](CC(C)C)N(C)C(=O)[C@@H](C(C)C)NC(=O)[C@H](CC(C)C)N(C)C(=O)[C@@H](C)N(C)C1=O` [Compound EM, [(3R,4R,5S)-(3,3-Difluoro-azetidin-1-yl)-4-hydroxy-3-methyl-5-(methylamino)-1-hexanoic acid]^1[(R)-methyl-Sar]^3 cyclosporin A], in series [1], the immunosuppressive potential entry is recorded as “more immunosuppressive potential than others”. Besides, the inhibitory constant (Ki) in series [2] amounted to 9.5 nM. Also, the “Water Solubility Assay” value in series [3] fell in the range of 75 to 100 µM.

Consider `CC[C@H]1NC(=O)[C@@H]([C@H](O)[C@H](C)CCN2CCC(F)(F)CC2)N(C)C(=O)[C@@H](C(C)C)N(C)C(=O)[C@@H](CC(C)C)N(C)C(=O)[C@@H](CC(C)C)N(C)C(=O)[C@H](C)NC(=O)[C@@H](C)NC(=O)[C@@H](CC(C)C)N(C)C(=O)[C@@H](C(C)C)NC(=O)[C@H](CC(C)C)N(C)C(=O)[C@@H](C)N(C)C1=O` [Compound EN, [(3R,4R,5S)-(4,4-Difluoro-piperidin-1-yl)-4-hydroxy-3-methyl-5-(methylamino)-1-hexanoic acid]^1[(R)-methyl-Sar]^3 cyclosporin A], for which the immunosuppressive potential entry in series [1] is “more immunosuppressive potential than others”. In addition, the Ki in series [2] is 6.7 nM. In addition, the “Water Solubility Assay” value in series [3] was in the range of 25 to 50 µM.

In the case of `CCC1NC(=O)C(C(O)C(C)CCN(CCC(F)(F)F)CCC(F)(F)F)N(C)C(=O)C(C(C)C)N(C)C(=O)C(CC(C)C)N(C)C(=O)C(CC(C)C)N(C)C(=O)C(C)NC(=O)C(C)NC(=O)C(CC(C)C)N(C)C(=O)C(C(C)C)NC(=O)C(CC(C)C)N(C)C(=O)C(C)N(C)C1=O` [Compound EQ, (3R,4R,5S)-1-[Bis-(3,3,3-trifluoro-propyl)-amino]-[(4-Hydroxy-3-methyl-5-(methylamino)-hexanoic acid]^1[(R)-methyl-Sar]^3 cyclosporin A], the immunosuppressive potential entry in series [1] is “more immunosuppressive potential than others”. In series [2], the Ki amounted to 4.6 nM. Further, the “Water Solubility Assay” value in series [3] lay in the range of 25 to 50 µM.

With `CC[C@H]1NC(=O)[C@@H]([C@H](O)[C@H](C)CCN2CC(F)(F)C(F)(F)C2)N(C)C(=O)[C@@H](C(C)C)N(C)C(=O)[C@@H](CC(C)C)N(C)C(=O)[C@@H](CC(C)C)N(C)C(=O)[C@H](C)NC(=O)[C@@H](C)NC(=O)[C@@H](CC(C)C)N(C)C(=O)[C@@H](C(C)C)NC(=O)[C@H](CC(C)C)N(C)C(=O)[C@@H](C)N(C)C1=O` [Compound ER, [(3R,4R,5S)-4-Hydroxy-3-methyl-5-(methylamino)-1-(3,3,4,4-tetrafluoro-pyrrolidin-1-yl)-hexanoic acid]^1[(R)-methyl-Sar]^3 cyclosporin A], the immunosuppressive potential entry in series [1] was “more immunosuppressive potential than others”. For the same compound, in series [2], the Ki was 6.7 nM. In addition, the “Water Solubility Assay” value in series [3] lay within 25 to 50 µM.

A word on the Ki: it is the equilibrium dissociation constant of an inhibitor or competing ligand from its target.
